How the values were obtained:
[1] = system: TSST-1 production by S. aureus FRI-1169; format: cell-based, Staphylococcus aureus
[2] = system: TSST-1 production by S. aureus FRI-1187; format: cell-based, Staphylococcus aureus

## Oc1cc(Cl)ccc1Oc1ccc(Cl)cc1Cl [Triclosan, triclosan]
[1]
  TSST-1 production compared to the control: produced less TSST-1
[2]
  TSST-1 production compared to the control: produced less TSST-1

From US7323186B2 (priority 2001, dated 2008)
